PubChem BioAssay (NCI)
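Cultured in 96-well plates, cells were exposed to test compound for 48 hours across five concentrations. TGI: concentration producing complete growth inhibition.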

Tests used:
Assay in all cases: inhibition of tumour cell growth, NCI panel, 48 h
PC-3 prostate = system: PC-3 prostate
BT-549 breast = system: BT-549 breast
SF-539 CNS = system: SF-539 CNS
MDA-N = system: MDA-N
SR leukemia = system: SR leukemia
RPMI-8226 leukemia = system: RPMI-8226 leukemia
NCI-H522 lung = system: NCI-H522 lung
MCF7 breast = system: MCF7 breast
HOP-62 NSCLC = system: HOP-62 NSCLC
SW-620 colon = system: SW-620 colon

Structure (SMILES)	TGI (PC-3 prostate)	TGI (BT-549 breast)	TGI (SF-539 CNS)	TGI (MDA-N)	TGI (SR leukemia)	TGI (RPMI-8226 leukemia)	TGI (NCI-H522 lung)	TGI (MCF7 breast)	TGI (HOP-62 NSCLC)	TGI (SW-620 colon)
O=c1[nH]nc(-c2cccc([N+](=O)[O-])c2)[nH]1	> 100 µM	> 100 µM	> 100 µM	> 100 µM	> 100 µM	> 100 µM	> 100 µM	> 100 µM	> 100 µM	> 100 µM
CCC(CCCC[C@H]1CC[C@@H]2CC(=O)C[C@H]12)OC (stereo not given in full)	> 100 µM	> 100 µM	> 100 µM	> 100 µM	> 100 µM	> 100 µM	> 100 µM	> 100 µM	> 100 µM	> 100 µM
CC(C)C1OC(=O)C(Cc2ccccc2)N(C)C(=O)C(C(C)C)OC(=O)C(Cc2ccccc2)N(C)C(=O)C(C(C)C)OC(=O)C(Cc2ccccc2)N(C)C1=O (stereo not given)	1.91 µM	3.01 µM	3.47 µM	2.1 µM	4.06 µM	1.31 µM	2.12 µM	1.79 µM	2.19 µM	2.54 µM
Cc1cccc(NC(=S)NNC(=O)c2cc(-c3ccccc3)nc3ccccc23)c1	83.3 µM	> 100 µM	58.9 µM	> 100 µM	41.1 µM	83.6 µM	85.8 µM	57.2 µM	99.3 µM	> 100 µM
Clc1ccc(Cc2nc3cc(Cl)c(Cl)cc3n2CC2CCCN3CCCCC23)cc1 (stereo not given)	21.1 µM	26.1 µM	22.3 µM	24.2 µM	15.1 µM	> 100 µM	24.6 µM	28.3 µM	40.8 µM	31.3 µM
C=CCSC1=N/C(=C\c2ccc(C)cc2)C(=O)N1CC=C	70 µM	81.6 µM	> 100 µM	45.1 µM	29.4 µM	31.9 µM	> 100 µM	55.5 µM	> 100 µM	> 100 µM
CC[C@@]1(O)C(=O)OCc2c1cc1n(c2=O)Cc2c-1nc1ccc(N)cc1c2CC[Si](C)(C)C	13.7 µM	13.1 µM	< 0.01 µM	1.62 µM	< 0.01 µM	0.0841 µM	0.127 µM	0.39 µM	0.368 µM	14.6 µM
COc1cc2c(cc1C)NC(=O)/C2=C/c1c(Cl)[nH]c2ccccc12	18.3 µM	9.35 µM	4.15 µM	3.82 µM	23.1 µM	> 100 µM	20.5 µM	16.1 µM	14.6 µM	19.6 µM
NS(=O)(=O)c1ccc(Nc2c3ccccc3nc3c(C(=O)NC(CO)(CO)CO)cccc23)cc1	0.814 µM	0.322 µM	0.407 µM	0.862 µM	> 1 µM	0.683 µM	0.306 µM	0.106 µM	0.433 µM	0.435 µM
O=C1c2ccccc2CC12Cc1ccc3c(c1C2=O)CCCC3 (stereo not given)	> 100 µM	> 100 µM	> 100 µM	> 100 µM	6.56 µM	> 100 µM	> 100 µM	> 100 µM	> 100 µM	> 100 µM
C=CCN(C(C)=O)c1cc(OCc2ccccc2)c2c(c1)c(C)cn2S(=O)(=O)c1ccccc1	> 78.4 µM	> 100 µM	> 100 µM	> 74.7 µM	4.21 µM	> 28.5 µM	> 55.3 µM	31 µM	> 100 µM	> 100 µM
C[N+]1(CC[N+]2(C)CCCC2c2cccnc2)CCCC1c1cccnc1 (stereo not given)	> 100 µM	> 100 µM	> 100 µM	> 100 µM	> 100 µM	> 100 µM	> 100 µM	> 100 µM	> 100 µM	> 100 µM
O=C1N[C@@H]([C@H]2CC[C@H](Cl)CN2)C(=O)N[C@H]1[C@H]1CC[C@H](Cl)CN1	18 µM	4.27 µM	4.27 µM	4.98 µM	6.18 µM	75.1 µM	4.06 µM	7.25 µM	4.04 µM	29.4 µM
CCOC(=O)c1cccc(N=NNc2cccc(C(=O)OCC)c2)c1	> 100 µM	> 100 µM	36.6 µM	> 100 µM	> 100 µM	> 100 µM	84.3 µM	> 100 µM	32.4 µM	> 100 µM
